Measured values published in PMC6570762, “Identification of a binding protein for sesamin and characterization of its roles in plant growth” (Scientific Reports, 2019).

Molecular target: T1, Steroleosin B (GST-fused Steroleosin B) (Sesamum indicum, UniProt Q8LKV5)
T1 construct: gene SOP3
T1 sequence (Q8LKV5 1-362): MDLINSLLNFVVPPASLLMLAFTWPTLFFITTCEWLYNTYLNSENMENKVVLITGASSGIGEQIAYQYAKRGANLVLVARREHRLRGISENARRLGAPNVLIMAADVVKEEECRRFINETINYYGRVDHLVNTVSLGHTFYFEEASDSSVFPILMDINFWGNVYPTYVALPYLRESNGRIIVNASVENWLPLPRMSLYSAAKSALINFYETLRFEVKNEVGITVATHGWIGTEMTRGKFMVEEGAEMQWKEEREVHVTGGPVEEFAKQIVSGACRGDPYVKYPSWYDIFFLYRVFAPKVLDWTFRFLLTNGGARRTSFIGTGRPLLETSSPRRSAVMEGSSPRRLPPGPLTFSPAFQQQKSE
Assay: STD-NMR ([…] MHz)
Type: binding
Settings: 60 μM sesamin, 0.5 μM GST-Steroleosin B, stated ligand:protein ratio 60:1; PBS in D2O, 5% DMSO-d6, 298 K; GST alone as control

Structure (SMILES): c1cc2c(cc1[C@H]1OC[C@H]3[C@@H]1CO[C@@H]3c1ccc3c(c1)OCO3)OCO2 [sesamin]
- STD-NMR (800 MHz): these results demonstrate the direct interaction between sesamin and Steroleosin B
